Values after ≈ are worked out from the molar mass of the structure shown. Peptide text beside a SMILES is read from it.
Assays:
[1] = test system: human red blood cells (RBC); experiment: Hemolytic assay; details: read-out: EC50 (peptide concentration producing 50% hemolysis); 1% RBC suspension in PBS pH 7.4, 37°C, 1 h, absorbance at 550 nm; 100% hemolysis = 0.05% Triton X-100
Description: The erythrocytes were pelleted by centrifugation at 450×g for 10 min and washed three times with phosphate-buffered saline (PBS; 320 mOsm, pH 7.4). The cell pellet was resuspended in 4 ml PBS and adjusted to a suspension giving 10% RBC. The test was performed in a 96 well U-shaped microtiter plate (Nunclon™ Surface, No. 163320; Nagle Nunc Int., Roskilde, Denmark), in which 50 µl peptide were incubated with 40 µl PBS and 10 µl RBC suspension. The synthetic peptides were tested at final concentrations ranging from 0.2 to 100 µM. After incubation in a shaker at 37°C for 1 h, the plate was centrifuged at 200×g for 5 min. The supernatants (60 µl) were carefully transferred to a new flat-bottomed polycarbonate microtiter plate (Nunc™ No. 269620, Nagle Nunc Int., Roskilde, Denmark), and absorbance was measured at 550 nm. Baseline hemolysis and 100% hemolysis were defined as the amount of hemoglobin released in the presence of PBS and 0.05% Triton X-100 (Sigma-Aldrich, Saint Louis, MO, USA), respectively. The EC50 value was taken as the mean concentration of peptide producing 50% hemolysis.

E. coli ATCC 25922 = assay type: cell-based, Escherichia coli; details: ATCC 25922, 24 h
Description: (§1) Escherichia coli (ATCC 25922), E. coli HB101, Pseudomonas aeruginosa (ATCC 27853), Staphylococcus aureus (ATCC 9144) and Corynebacterium glutamicum (ATCC 13032) were grown at 37°C in Mueller Hinton agar (MH; Difco Laboratories, Detroit, USA). The yeasts Candida albicans (ATCC 10231) and Saccharomyces cerevisiae spp and the mold Botrytis cinerea 101 [33] were cultivated on potato dextrose agar supplemented with 2% glucose at room temperature (RT).
(§2) Determination of the MIC against bacteria was performed by continuous monitoring of bacterial growth using a Bioscreen C microbiology reader (Labsystems Oy, Helsinki, Finland). The synthetic peptides were tested for antibacterial and antifungal activity at final concentrations (prepared from serial two-fold dilutions) ranging from 0.2 µM to 100 µM. The test was performed in 100-well flat-bottomed honeycomb plates, in which 50 µl peptide solution was incubated with 50 µl of a suspension of an actively growing culture of bacteria diluted to a starting concentration of 2.5×10^5 CFU/ml in Mueller Hinton Broth (MHB). The growth chamber was maintained at 37°C during the incubation period. The absorbance was measured by a turbidometric method with vertical light photometry and a wide band filter (420–580 nm). MIC was defined as the lowest concentration resulting in no visible bacterial growth after 24 h.

P. aeruginosa ATCC 27853 = assay type: cell-based, Pseudomonas aeruginosa; details: ATCC 27853, 24 h
Description: as §1, §2

C. glutamicum ATCC 13032 = assay type: cell-based, Corynebacterium glutamicum; details: ATCC 13032, 24 h
Description: as §1, §2

S. aureus ATCC 9144 = assay type: cell-based, Staphylococcus aureus; details: ATCC 9144, 24 h
Description: as §1, §2

S. cerevisiae spp. = assay type: cell-based, Saccharomyces cerevisiae; details: 48 h
Description: as §1
(§3) Fungal spores were dissolved in potato dextrose broth (Difco, Lawrence, KS, USA) and the cell concentration was determined and adjusted after counting in a Bürker chamber. Botrytis cinerea was filtered through a piece of cotton before counting. An aliquot of 50 µl of fungal spores (final concentration 2×10^5 spores/ml) were inoculated in 96-well Nunclon™ microtitre plates (Nagle Nunc Int. Roskilde, Denmark) along with 50 µl of synthetic peptide dissolved in Milli-Q water. Cultures were grown in a dark moist chamber without shaking at 20°C for S. cerevisiae and B. cinerea, and at 37°C for C. albicans. Growth inhibition was determined microscopically after 48 h of incubation. Inhibitory concentrations (IC50) was defined as the lowest concentration tested which yielded less than 50% visible growth compared to the growth control (fungi). Each peptide was tested in parallels in three individual runs for the antimicrobial assays.

C. albicans ATCC 10231 = assay type: cell-based, Candida albicans; details: ATCC 10231, 48 h
Description: as §1, §3

B. cinerea 101 = assay type: cell-based, Botrytis cinerea; details: 101, 48 h
Description: as §1, §3

E. coli = experiment: Antimicrobial activity at varied MH concentration; assay type: cell-based, Escherichia coli; details: results not shown
Description: In contrast to the results from E. coli and P. aeruginosa, the C-terminal part of arasin 1(1–23) alone arasin 1(7–23) and 1(9–23) inhibits C. glutamicum and all the fungi. At the same time this antibacterial and antifungal activity is strictly dependent on a fragment between aa 13–23. This indicates a somewhat different mode of action for Gram- negative and Gram-positive bacteria, respectively. Likewise the mode of action against fungi is likely different. It is tempting to speculate that the N-terminal 5–10 amino acids might be involved in arasin 1(1–23) transfer across the outer membrane while the C-terminal part might bind the molecular target which is responsible for growth inhibition at low concentrations. The antimicrobial assays were all performed in MH or potato dextrose medium at a final concentration of 50% strength for bacteria and fungi, respectively. […] This means that the peptides are very sensitive to medium composition, and perhaps also salinity and/or ionic strength. […] In some studies, the use of diluted or poor medium instead of rich medium in MIC and mode of action studies is claimed to increase the sensitivity of the assays, [47]. The reasons of the medium-dependence have not been further evaluated, and 50% MH was used as the standard medium for the mode of action studies.

Molecule | EC50 [1] | MIC E. coli ATCC 25922 (E. coli ATCC 25922) | MIC P. aeruginosa ATCC 27853 (P. aeruginosa ATCC 27853) | MIC C. glutamicum ATCC 13032 (C. glutamicum ATCC 13032) | MIC S. aureus ATCC 9144 (S. aureus ATCC 9144) | IC50 (S. cerevisiae spp.) | IC50 (C. albicans ATCC 10231) | IC50 (B. cinerea 101) | change of antimicrobial activity against E. coli by varying the MH concentration (E. coli)
mellitin B: hemolytic control peptide purchased from Sigma-Aldrich | 2000 nM |  |  |  |  |  |  |  | 
CC[C@H](C)[C@H](NC(=O)[C@H](CCCNC(=N)N)NC(=O)[C@@H]1CCCN1C(=O)[C@@H]1CCCN1C(=O)[C@H](CC(C)C)NC(=O)[C@H](CCCNC(=N)N)NC(=O)[C@@H]1CCCN1C(=O)[C@@H]1CCCN1C(=O)[C@H](Cc1ccccc1)NC(=O)[C@H](Cc1ccccc1)NC(=O)[C@@H]1CCCN1C(=O)[C@@H]1CCCN1C(=O)[C@@H]1CCCN1C(=O)[C@H](CCCNC(=N)N)NC(=O)[C@@H]1CCCN1C(=O)[C@H](CCCNC(=N)N)NC(=O)[C@@H]1CCCN1C(=O)[C@H](CC(C)C)NC(=O)[C@H](Cc1ccc(O)cc1)NC(=O)[C@@H]1CCCN1C(=O)[C@@H]1CCCN1C(=O)[C@H](CCCNC(=N)N)NC(=O)[C@@H]1CCCN1C(=O)[C@H](CCCNC(=N)N)NC(=O)[C@H](CCCNC(=N)N)NC(=O)[C@@H](N)CCCNC(=N)N)C(=O)O [PR39(1–26), reference compound] (H-RRRPRPPYLPRPRPPPFFPPRLPPRI-OH; N-terminus and C-terminus assumed) |  | 0.8 to 1.6 µM | 3.1 to 6.3 µM | 0.4 µM (≈ 1.29 µg/mL) | 50 µM (≈ 161 µg/mL) | 12.5 µM | 12.5 µM | 12.5 µM | did not change the antimicrobial activity
